Test results as given in BigSolDB 2.1.

Structure (SMILES): CC(=O)Nc1ccccc1[N+](=O)[O-]
- solubility (mole fraction) (in 1,4-dioxane, 288.15 K): 0.13
- solubility (mole fraction) (in 1,4-dioxane, 293.15 K): 0.147
- solubility (mole fraction) (in 1,4-dioxane, 298.15 K): 0.165
- solubility (mole fraction) (in 1,4-dioxane, 303.15 K): 0.186
- solubility (mole fraction) (in 1,4-dioxane, 308.15 K): 0.211
- solubility (mole fraction) (in 1,4-dioxane, 313.15 K): 0.244
- solubility (mole fraction) (in 1,4-dioxane, 318.15 K): 0.284
- solubility (mole fraction) (in 1,4-dioxane, 323.15 K): 0.343
- solubility (mole fraction) (in DMF, 278.15 K): 0.167
- solubility (mole fraction) (in DMF, 283.15 K): 0.178
- solubility (mole fraction) (in DMF, 288.15 K): 0.192
- solubility (mole fraction) (in DMF, 293.15 K): 0.213
- solubility (mole fraction) (in DMF, 298.15 K): 0.238
- solubility (mole fraction) (in DMF, 303.15 K): 0.266
- solubility (mole fraction) (in DMF, 308.15 K): 0.295
- solubility (mole fraction) (in DMF, 313.15 K): 0.327
- solubility (mole fraction) (in DMF, 318.15 K): 0.373
- solubility (mole fraction) (in DMF, 323.15 K): 0.426
- solubility (mole fraction) (in NMP, 278.15 K): 0.195
- solubility (mole fraction) (in NMP, 283.15 K): 0.215
- solubility (mole fraction) (in NMP, 288.15 K): 0.239
- solubility (mole fraction) (in NMP, 293.15 K): 0.268
- solubility (mole fraction) (in NMP, 298.15 K): 0.299
- solubility (mole fraction) (in NMP, 303.15 K): 0.33
- solubility (mole fraction) (in NMP, 308.15 K): 0.367
- solubility (mole fraction) (in NMP, 313.15 K): 0.404
- solubility (mole fraction) (in NMP, 318.15 K): 0.445
- solubility (mole fraction) (in NMP, 323.15 K): 0.491
- solubility (mole fraction) (in acetonitrile, 278.15 K): 0.0156
- solubility (mole fraction) (in acetonitrile, 283.15 K): 0.0176
- solubility (mole fraction) (in acetonitrile, 288.15 K): 0.021
- solubility (mole fraction) (in acetonitrile, 293.15 K): 0.0248
- solubility (mole fraction) (in acetonitrile, 298.15 K): 0.0302
- solubility (mole fraction) (in acetonitrile, 303.15 K): 0.0387
- solubility (mole fraction) (in acetonitrile, 308.15 K): 0.0511
- solubility (mole fraction) (in acetonitrile, 313.15 K): 0.0675
- solubility (mole fraction) (in acetonitrile, 318.15 K): 0.0932
- solubility (mole fraction) (in acetonitrile, 323.15 K): 0.124
- solubility (mole fraction) (in cyclohexane, 283.15 K): 0.00106
- solubility (mole fraction) (in cyclohexane, 288.15 K): 0.00133
- solubility (mole fraction) (in cyclohexane, 293.15 K): 0.00167
- solubility (mole fraction) (in cyclohexane, 298.15 K): 0.00216
- solubility (mole fraction) (in cyclohexane, 303.15 K): 0.00275
- solubility (mole fraction) (in cyclohexane, 308.15 K): 0.00357
- solubility (mole fraction) (in cyclohexane, 313.15 K): 0.00474
- solubility (mole fraction) (in cyclohexane, 318.15 K): 0.00634
- solubility (mole fraction) (in cyclohexane, 323.15 K): 0.0084
- solubility (mole fraction) (in ethanol, 278.15 K): 0.0143
- solubility (mole fraction) (in ethanol, 283.15 K): 0.0163
- solubility (mole fraction) (in ethanol, 288.15 K): 0.0188
- solubility (mole fraction) (in ethanol, 293.15 K): 0.0226
- solubility (mole fraction) (in ethanol, 298.15 K): 0.0276
- solubility (mole fraction) (in ethanol, 303.15 K): 0.0323
- solubility (mole fraction) (in ethanol, 308.15 K): 0.0382
- solubility (mole fraction) (in ethanol, 313.15 K): 0.0447
- solubility (mole fraction) (in ethanol, 318.15 K): 0.0516
- solubility (mole fraction) (in ethanol, 323.15 K): 0.0615
- solubility (mole fraction) (in ethyl acetate, 278.15 K): 0.0478
- solubility (mole fraction) (in ethyl acetate, 283.15 K): 0.0545
- solubility (mole fraction) (in ethyl acetate, 288.15 K): 0.0662
- solubility (mole fraction) (in ethyl acetate, 293.15 K): 0.079
- solubility (mole fraction) (in ethyl acetate, 298.15 K): 0.094
- solubility (mole fraction) (in ethyl acetate, 303.15 K): 0.112
- solubility (mole fraction) (in ethyl acetate, 308.15 K): 0.135
- solubility (mole fraction) (in ethyl acetate, 313.15 K): 0.163
- solubility (mole fraction) (in ethyl acetate, 318.15 K): 0.21
- solubility (mole fraction) (in ethyl acetate, 323.15 K): 0.263
- solubility (mole fraction) (in ethylene glycol, 278.15 K): 0.00464
- solubility (mole fraction) (in ethylene glycol, 283.15 K): 0.00517
- solubility (mole fraction) (in ethylene glycol, 288.15 K): 0.00599
- solubility (mole fraction) (in ethylene glycol, 293.15 K): 0.00714
- solubility (mole fraction) (in ethylene glycol, 298.15 K): 0.00855
- solubility (mole fraction) (in ethylene glycol, 303.15 K): 0.0103
- solubility (mole fraction) (in ethylene glycol, 308.15 K): 0.0126
- solubility (mole fraction) (in ethylene glycol, 313.15 K): 0.0155
- solubility (mole fraction) (in ethylene glycol, 318.15 K): 0.0187
- solubility (mole fraction) (in ethylene glycol, 323.15 K): 0.0224
- solubility (mole fraction) (in isobutanol, 278.15 K): 0.00896
- solubility (mole fraction) (in isobutanol, 283.15 K): 0.00984
- solubility (mole fraction) (in isobutanol, 288.15 K): 0.0115
- solubility (mole fraction) (in isobutanol, 293.15 K): 0.0134
- solubility (mole fraction) (in isobutanol, 298.15 K): 0.0162
- solubility (mole fraction) (in isobutanol, 303.15 K): 0.0202
- solubility (mole fraction) (in isobutanol, 308.15 K): 0.0246
- solubility (mole fraction) (in isobutanol, 313.15 K): 0.0302
- solubility (mole fraction) (in isobutanol, 318.15 K): 0.0374
- solubility (mole fraction) (in isobutanol, 323.15 K): 0.0483
- solubility (mole fraction) (in isopropanol, 278.15 K): 0.00743
- solubility (mole fraction) (in isopropanol, 283.15 K): 0.00851
- solubility (mole fraction) (in isopropanol, 288.15 K): 0.00991
- solubility (mole fraction) (in isopropanol, 293.15 K): 0.0121
- solubility (mole fraction) (in isopropanol, 298.15 K): 0.0151
- solubility (mole fraction) (in isopropanol, 303.15 K): 0.0184
- solubility (mole fraction) (in isopropanol, 308.15 K): 0.0227
- solubility (mole fraction) (in isopropanol, 313.15 K): 0.0279
- solubility (mole fraction) (in isopropanol, 318.15 K): 0.036
- solubility (mole fraction) (in isopropanol, 323.15 K): 0.0468
- solubility (mole fraction) (in methanol, 278.15 K): 0.0181
- solubility (mole fraction) (in methanol, 283.15 K): 0.021
- solubility (mole fraction) (in methanol, 288.15 K): 0.0248
- solubility (mole fraction) (in methanol, 293.15 K): 0.0289
- solubility (mole fraction) (in methanol, 298.15 K): 0.0331
- solubility (mole fraction) (in methanol, 303.15 K): 0.0394
- solubility (mole fraction) (in methanol, 308.15 K): 0.0463
- solubility (mole fraction) (in methanol, 313.15 K): 0.0558
- solubility (mole fraction) (in methanol, 318.15 K): 0.0703
- solubility (mole fraction) (in methanol, 323.15 K): 0.0926
- solubility (mole fraction) (in n-butanol, 278.15 K): 0.00975
- solubility (mole fraction) (in n-butanol, 283.15 K): 0.011
- solubility (mole fraction) (in n-butanol, 288.15 K): 0.0127
- solubility (mole fraction) (in n-butanol, 293.15 K): 0.016
- solubility (mole fraction) (in n-butanol, 298.15 K): 0.0196
- solubility (mole fraction) (in n-butanol, 303.15 K): 0.0232
- solubility (mole fraction) (in n-butanol, 308.15 K): 0.028
- solubility (mole fraction) (in n-butanol, 313.15 K): 0.0341
- solubility (mole fraction) (in n-butanol, 318.15 K): 0.0422
- solubility (mole fraction) (in n-butanol, 323.15 K): 0.0529
- solubility (mole fraction) (in n-heptanol, 278.15 K): 0.00627
- solubility (mole fraction) (in n-heptanol, 283.15 K): 0.00721
- solubility (mole fraction) (in n-heptanol, 288.15 K): 0.00829
- solubility (mole fraction) (in n-heptanol, 293.15 K): 0.0105
- solubility (mole fraction) (in n-heptanol, 298.15 K): 0.0129
- solubility (mole fraction) (in n-heptanol, 303.15 K): 0.0163
- solubility (mole fraction) (in n-heptanol, 308.15 K): 0.0209
- solubility (mole fraction) (in n-heptanol, 313.15 K): 0.0261
- solubility (mole fraction) (in n-heptanol, 318.15 K): 0.0337
- solubility (mole fraction) (in n-heptanol, 323.15 K): 0.042
- solubility (mole fraction) (in n-propanol, 278.15 K): 0.0129
- solubility (mole fraction) (in n-propanol, 283.15 K): 0.0144
- solubility (mole fraction) (in n-propanol, 288.15 K): 0.0167
- solubility (mole fraction) (in n-propanol, 293.15 K): 0.0204
- solubility (mole fraction) (in n-propanol, 298.15 K): 0.0245
- solubility (mole fraction) (in n-propanol, 303.15 K): 0.0285
- solubility (mole fraction) (in n-propanol, 308.15 K): 0.0331
- solubility (mole fraction) (in n-propanol, 313.15 K): 0.0393
- solubility (mole fraction) (in n-propanol, 318.15 K): 0.0468
- solubility (mole fraction) (in n-propanol, 323.15 K): 0.0578
- solubility (mole fraction) (in water, 278.15 K): 9.9e-05
- solubility (mole fraction) (in water, 283.15 K): 0.000128
- solubility (mole fraction) (in water, 288.15 K): 0.00016
- solubility (mole fraction) (in water, 293.15 K): 0.000201
- solubility (mole fraction) (in water, 298.15 K): 0.000249
- solubility (mole fraction) (in water, 303.15 K): 0.00032
- solubility (mole fraction) (in water, 308.15 K): 0.000412
- solubility (mole fraction) (in water, 313.15 K): 0.000521
- solubility (mole fraction) (in water, 318.15 K): 0.000662
- solubility (mole fraction) (in water, 323.15 K): 0.000824
